target: Btk (Homo sapiens, UniProt Q06187); assay: Btk in vitro inhibitory activity, acellular kinase assay (TR-FRET); assay type: biochemical
Protocol: Btk kinase activity is determined using a time-resolved fluorescence resonance energy transfer (TR-FRET) methodology. Measurements are performed in a reaction volume of 50 μL using 96-well assay plates. Kinase enzyme, inhibitor, ATP (at the Km for the kinase), and 1 μM peptide substrate (Biotin-AVLESEEELYSSARQ-NH2) are incubated in a reaction buffer composed of 20 mM Tris, 50 mM NaCl, MgCl2 (5-25 mM depending on the kinase), MnCl2 (0-10 mM), 1 mM DTT, 0.1 mM EDTA, 0.01% bovine serum albumin, 0.005% Tween-20, and 10% DMSO at pH 7.4 for one hour. The reaction is quenched by the addition of 1.2 equivalents of EDTA (relative to divalent cation) in 25 μL of 1× Lance buffer (Perkin-Elmer). Streptavidin-APC (Perkin-Elmer) and Eu-labeled p-Tyr100 antibody (Perkin-Elmer) in 1× Lance buffer are added in a 25 μL volume to give final concentrations of 100 nM and 2.5 nM, respectively, and the mixture is allowed to incubate for one hour. The TR-FRET signal is measured on a multimode plate reader with an excitation wavelength (λEx) of 330 nm and detection wavelengths (λEm) of 615 and 665 nm. Activity is determined by the ratio of the fluorescence at 665 nm to that at 615 nm. For each compound, enzyme activity is measured at various concentrations of compound. Negative control reactions are performed in the absence of inhibitor in replicates of six, and two no-enzyme controls were used to determine baseline fluorescence levels. Inhibition constants, Ki(app), are obtained using the program BatchKi (Kuzmic et al. (2000), Anal. Biochem. 286:45-50). IC50s are obtained according to the equation: IC50={Ki(app)/(1+[ATP]/Km^ATP)}+[E]total/2;
For all kinases, [ATP]=Km^ATP, [Btk]total=0.5 nM and [Lck]total=6 nM.

Sequence of Btk (Q06187 whole entry): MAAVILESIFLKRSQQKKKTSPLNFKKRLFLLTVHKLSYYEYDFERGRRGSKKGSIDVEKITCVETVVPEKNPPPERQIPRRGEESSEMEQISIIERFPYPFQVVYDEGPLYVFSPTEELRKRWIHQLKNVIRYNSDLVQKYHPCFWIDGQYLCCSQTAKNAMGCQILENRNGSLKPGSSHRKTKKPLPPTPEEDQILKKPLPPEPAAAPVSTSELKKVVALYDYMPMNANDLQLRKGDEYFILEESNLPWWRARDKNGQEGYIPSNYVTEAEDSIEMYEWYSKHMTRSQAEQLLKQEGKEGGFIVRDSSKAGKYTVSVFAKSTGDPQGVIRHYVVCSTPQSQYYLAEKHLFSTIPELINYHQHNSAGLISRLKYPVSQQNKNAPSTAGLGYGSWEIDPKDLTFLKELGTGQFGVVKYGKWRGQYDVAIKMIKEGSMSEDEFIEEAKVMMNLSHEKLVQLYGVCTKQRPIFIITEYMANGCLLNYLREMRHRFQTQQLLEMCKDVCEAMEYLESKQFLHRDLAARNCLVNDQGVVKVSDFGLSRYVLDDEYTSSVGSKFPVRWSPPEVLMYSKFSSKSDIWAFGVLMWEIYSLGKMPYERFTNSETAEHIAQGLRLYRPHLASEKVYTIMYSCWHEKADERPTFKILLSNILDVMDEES

Structure (SMILES)	IC50 [nM]
CN1CCC(NC/C=C/C(=O)N2CCC[C@@H](n3nc(-c4ccc(Oc5ccccc5)cc4)c4c(N)ncnc43)C2)CC1 [Example 2ao, (R,E)-1-(3-(4-amino-3-(4-phenoxyphenyl)-1H-pyrazolo[3,4-d]pyrimidin-1-yl)piperidin-1-yl)-4-(1-methylpiperidin-4-ylamino)but-2-en-1-one]	< 100
CN1CCC(N(C)C/C=C/C(=O)N2CCC[C@@H](n3nc(-c4ccc(Oc5ccccc5)cc4)c4c(N)ncnc43)C2)CC1 [Example 2an, (R,E)-1-(3-(4-amino-3-(4-phenoxyphenyl)-1H-pyrazolo[3,4-d]pyrimidin-1-yl)piperidin-1-yl)-4-(methyl(1-methylpiperidin-4-yl)amino)but-2-en-1-one]	< 100
Nc1ncnc2c1c(-c1ccc(Oc3ccccc3)cc1)nn2[C@@H]1CCCN(C(=O)/C=C/CNC2CCC2)C1 [Example 2am, (R,E)-1-(3-(4-amino-3-(4-phenoxyphenyl)-1H-pyrazolo[3,4-d]pyrimidin-1-yl)piperidin-1-yl)-4-(cyclobutylamino)but-2-en-1-one]	< 100
Nc1ncnc2c1c(-c1ccc(Oc3ccccc3)cc1)nn2[C@@H]1CCCN(C(=O)/C=C/CNC2CCCCC2)C1 [Example 2ah, (R,E)-1-(3-(4-amino-3-(4-phenoxyphenyl)-1H-pyrazolo[3,4-d]pyrimidin-1-yl)piperidin-1-yl)-4-(cyclohexylamino)but-2-en-1-one]	< 100
CN(C/C=C/C(=O)N1CCC[C@@H](n2nc(-c3ccc(Oc4ccccc4)cc3)c3c(N)ncnc32)C1)C1CCOCC1 [Example 1q, (R,E)-1-(3-(4-amino-3-(4-phenoxyphenyl)-1H-pyrazolo[3,4-d]pyrimidin-1-yl)piperidin-1-yl)-4-(methyl(tetrahydro-2H-pyran-4-yl)amino)but-2-en-1-one]	< 100
Nc1ncnc2c1c(-c1ccc(Oc3ccccc3)cc1)nn2[C@@H]1CCN(C(=O)/C=C/CNC2CCCC2)C1 [Example 2z, (R,E)-1-(3-(4-amino-3-(4-phenoxyphenyl)-1H-pyrazolo[3,4-d]pyrimidin-1-yl)pyrrolidin-1-yl)-4-(cyclopentylamino)but-2-en-1-one]	< 100
Nc1ncnc2c1c(-c1ccc(Oc3ccccc3)cc1)nn2[C@@H]1CCN(C(=O)/C=C/CNC2COC2)C1 [Example 2g, (R,E)-1-(3-(4-amino-3-(4-phenoxyphenyl)-1H-pyrazolo[3,4-d]pyrimidin-1-yl)pyrrolidin-1-yl)-4-(oxetan-3-ylamino)but-2-en-1-one]	< 100
Nc1ncnc2c1c(-c1ccc(Oc3ccccc3)cc1)nn2[C@@H]1CCCN(C(=O)/C=C/CNC2CCOCC2)C1 [Example 1f, (R,E)-1-(3-(4-amino-3-(4-phenoxyphenyl)-1H-pyrazolo[3,4-d]pyrimidin-1-yl)piperidin-1-yl)-4-(tetrahydro-2H-pyran-4-ylamino)but-2-en-1-one]	< 100
Nc1ncnc2c1c(-c1ccc(Oc3ccccc3)cc1)nn2[C@@H]1CCN(C(=O)/C=C/CN(C2CC2)C2CC2)C1 [Example 2a, (R,E)-1-(3-(4-amino-3-(4-phenoxyphenyl)-1H-pyrazolo[3,4-d]pyrimidin-1-yl)pyrrolidin-1-yl)-4-(dicyclopropylamino)but-2-en-1-one]	< 100
CN1CCC(N(C)C/C=C/C(=O)N2CC[C@@H](n3nc(-c4ccc(Oc5ccccc5)cc4)c4c(N)ncnc43)C2)CC1 [Example 2ac, (R,E)-1-(3-(4-amino-3-(4-phenoxyphenyl)-1H-pyrazolo[3,4-d]pyrimidin-1-yl)pyrrolidin-1-yl)-4-(methyl(1-methylpiperidin-4-yl)amino)but-2-en-1-one]	< 100
CN1CCC(NC/C=C/C(=O)N2CC[C@@H](n3nc(-c4ccc(Oc5ccccc5)cc4)c4c(N)ncnc43)C2)CC1 [Example 2ad, (R,E)-1-(3-(4-amino-3-(4-phenoxyphenyl)-1H-pyrazolo[3,4-d]pyrimidin-1-yl)pyrrolidin-1-yl)-4-(1-methylpiperidin-4-ylamino)but-2-en-1-one]	< 100
CN(C/C=C/C(=O)N1CCC[C@@H](n2nc(-c3ccc(Oc4ccccc4)cc3)c3c(N)ncnc32)C1)c1ccccn1 [Example 1t, (R,E)-1-(3-(4-amino-3-(4-phenoxyphenyl)-1H-pyrazolo[3,4-d]pyrimidin-1-yl)piperidin-1-yl)-4-(methyl(pyridin-2-yl)amino)but-2-en-1-one]	< 100
CN(C/C=C/C(=O)N1CCC[C@@H](n2nc(-c3ccc(Oc4ccccc4)cc3)c3c(N)ncnc32)C1)C1CCCCC1 [Example 2ag, (R,E)-1-(3-(4-amino-3-(4-phenoxyphenyl)-1H-pyrazolo[3,4-d]pyrimidin-1-yl)piperidin-1-yl)-4-(cyclohexyl(methyl)amino)but-2-en-1-one]	< 100
Nc1ncnc2c1c(-c1ccc(Oc3ccccc3)cc1)nn2[C@@H]1CCCN(C(=O)/C=C/CN[C@@H]2CCOC2)C1 [Example 2i, (E)-1-((R)-3-(4-amino-3-(4-phenoxyphenyl)-1H-pyrazolo[3,4-d]pyrimidin-1-yl)piperidin-1-yl)-4-((R)-tetrahydrofuran-3-ylamino)but-2-en-1-one]	< 100
Nc1ncnc2c1c(-c1ccc(Oc3ccccc3)cc1)nn2[C@@H]1CCN(C(=O)/C=C/CNC2CCCCC2)C1 [Example 2x, (R,E)-1-(3-(4-amino-3-(4-phenoxyphenyl)-1H-pyrazolo[3,4-d]pyrimidin-1-yl)pyrrolidin-1-yl)-4-(cyclohexylamino)but-2-en-1-one]	< 100
Nc1ncnc2c1c(-c1ccc(Oc3ccccc3)cc1)nn2[C@@H]1CCN(C(=O)/C=C/CNC2CCOCC2)C1 [Example 1d, (R,E)-1-(3-(4-amino-3-(4-phenoxyphenyl)-1H-pyrazolo[3,4-d]pyrimidin-1-yl)pyrrolidin-1-yl)-4-(tetrahydro-2H-pyran-4-ylamino)but-2-en-1-one]	< 100
Nc1ncnc2c1c(-c1ccc(Oc3ccccc3)cc1)nn2[C@@H]1CCCN(C(=O)/C=C/CN(C2CC2)C2CC2)C1 [Example 2r, (R,E)-1-(3-(4-amino-3-(4-phenoxyphenyl)-1H-pyrazolo[3,4-d]pyrimidin-1-yl)piperidin-1-yl)-4-(dicyclopropylamino)but-2-en-1-one]	< 100
CC(C)N(C/C=C/C(=O)N1CC[C@@H](n2nc(-c3ccc(Oc4ccccc4)cc3)c3c(N)ncnc32)C1)C1CCC1 [Example 2aq, (R,E)-1-(3-(4-amino-3-(4-phenoxyphenyl)-1H-pyrazolo[3,4-d]pyrimidin-1-yl)pyrrolidin-1-yl)-4-(cyclobutyl(isopropyl)amino)but-2-en-1-one]	< 100

Other lines, results leading:

IC50 [nM]	Structure (SMILES)
< 100	CN(C(=O)/C=C/CN(C)C1CC1)c1cccc(-n2nc(-c3ccc(Oc4ccccc4)cc3)c3c(N)ncnc32)c1 [Example 7d, (E)-N-(3-(4-amino-3-(4-phenoxyphenyl)-1H-pyrazolo[3,4-d]pyrimidin-1-yl)phenyl)-4-(cyclopropyl(methyl)amino)-N-methylbut-2-enamide]
< 100	CN(C/C=C/C(=O)N1CC[C@@H](n2nc(-c3ccc(Oc4cccc(F)c4)cc3)c3c(N)ncnc32)C1)C1CC1 [Example 4c, (R,E)-1-(3-(4-amino-3-(4-(3-fluorophenoxy)phenyl)-1H-pyrazolo[3,4-d]pyrimidin-1-yl)pyrrolidin-1-yl)-4-(cyclopropyl(methyl)amino)but-2-en-1-one]
< 100	CN(C/C=C/C(=O)N1CC(n2nc(-c3ccc(Oc4ccccc4)cc3)c3c(N)ncnc32)C1)C1CC1 [Example 5c, (E)-1-(3-(4-amino-3-(4-phenoxyphenyl)-1H-pyrazolo[3,4-d]pyrimidin-1-yl)azetidin-1-yl)-4-(cyclopropyl(methyl)amino)but-2-en-1-one]
< 100	CN(C/C=C/C(=O)Nc1cccc(-n2nc(-c3ccc(Oc4ccccc4)cc3)c3c(N)ncnc32)c1)C1CC1 [Example 7f, (E)-N-(3-(4-amino-3-(4-phenoxyphenyl)-1H-pyrazolo[3,4-d]pyrimidin-1-yl)phenyl)-4-(cyclopropyl(methyl)amino)but-2-enamide]
< 100	CN(C(=O)/C=C/CN(C)C1CC1)c1ccc(-n2nc(-c3ccc(Oc4ccccc4)cc3)c3c(N)ncnc32)cc1 [Example 7b, (E)-N-(4-(4-amino-3-(4-phenoxyphenyl)-1H-pyrazolo[3,4-d]pyrimidin-1-yl)phenyl)-4-(cyclopropyl(methyl)amino)-N-methylbut-2-enamide]
< 100	CN(C/C=C/C(=O)N1CC[C@@H](n2nc(-c3ccc(Oc4cccc(F)c4)cc3)c3c(N)ncnc32)C1)C1CCC1 [Example 4b, (R,E)-1-(3-(4-amino-3-(4-(3-fluorophenoxy)phenyl)-1H-pyrazolo[3,4-d]pyrimidin-1-yl)pyrrolidin-1-yl)-4-(cyclobutyl(methyl)amino)but-2-en-1-one]
< 100	CN(C(=O)/C=C/CN(C)C1CCC1)c1cccc(-n2nc(-c3ccc(Oc4ccccc4)cc3)c3c(N)ncnc32)c1 [Example 7e, (E)-N-(3-(4-amino-3-(4-phenoxyphenyl)-1H-pyrazolo[3,4-d]pyrimidin-1-yl)phenyl)-4-(cyclobutyl(methyl)amino)-N-methylbut-2-enamide]

Source: US9138436B2, “Inhibitors of Bruton's tyrosine kinase” (PHARMACYCLICS LLC, priority 2011, dated 2015)
